Results published in PubChem BioAssay AID1259407 (Chemical Carcinogenesis Research Information System (CCRIS), 2018).
Active and inactive are the calls of the source. How the calls were made is not given here. Where a SMILES comes first, the peptide text is derived from it. [ ]: non-standard residue; d: D form. pGlu = O=C1CC[C@@H](C(=O)O)N1; Thz = O=C(O)[C@@H]1CSCN1

Test system: CCRIS mutagenicity, Ames/micronucleus/aberration tests
Assay: CCRIS mutagenicity studies
[1] = Test System: AMES SALMONELLA TYPHIMURIUM, Strain/Indicator: TA98, Metabolic Activation: NONE, Method: PREINCUBATION
[2] = Test System: AMES SALMONELLA TYPHIMURIUM, Strain/Indicator: TA100, Metabolic Activation: NONE, Method: PREINCUBATION
[3] = Test System: AMES SALMONELLA TYPHIMURIUM, Strain/Indicator: TA1535, Metabolic Activation: NONE, Method: PREINCUBATION
[4] = Test System: AMES SALMONELLA TYPHIMURIUM, Strain/Indicator: TA1537, Metabolic Activation: NONE, Method: PREINCUBATION
[5] = Test System: AMES SALMONELLA TYPHIMURIUM, Strain/Indicator: TA98, Metabolic Activation: NONE, Method: STANDARD PLATE
[6] = Test System: AMES SALMONELLA TYPHIMURIUM, Strain/Indicator: TA100, Metabolic Activation: NONE, Method: STANDARD PLATE

## O=c1n(Cl)c(=O)n(Cl)c(=O)n1Cl
[1]
  mutagenic call: inactive; negative
Test System: AMES SALMONELLA TYPHIMURIUM, Strain/Indicator: TA98, Metabolic Activation: RAT LIVER S-9, PHENOBARBITAL AND BETA-NAPHTHOFLAVONE, Method: PREINCUBATION
  mutagenic call: inactive; negative
Test System: AMES SALMONELLA TYPHIMURIUM, Strain/Indicator: TA98, Metabolic Activation: RAT, LIVER, S-9, KC 500, Method: PREINCUBATION
  mutagenic call: inactive; negative
[2]
  mutagenic call: inactive; negative
Test System: AMES SALMONELLA TYPHIMURIUM, Strain/Indicator: TA100, Metabolic Activation: RAT LIVER S-9, PHENOBARBITAL AND BETA-NAPHTHOFLAVONE, Method: PREINCUBATION
  mutagenic call: inactive; negative
Test System: AMES SALMONELLA TYPHIMURIUM, Strain/Indicator: TA100, Metabolic Activation: RAT, LIVER, S-9, KC 500, Method: PREINCUBATION
  mutagenic call: inactive; negative
[3]
  mutagenic call: inactive; negative
Test System: AMES SALMONELLA TYPHIMURIUM, Strain/Indicator: TA1535, Metabolic Activation: RAT LIVER S-9, PHENOBARBITAL AND BETA-NAPHTHOFLAVONE, Method: PREINCUBATION
  mutagenic call: inactive; negative
Test System: AMES SALMONELLA TYPHIMURIUM, Strain/Indicator: TA1535, Metabolic Activation: RAT, LIVER, S-9, KC 500, Method: PREINCUBATION
  mutagenic call: inactive; negative
[4]
  mutagenic call: inactive; negative
Test System: AMES SALMONELLA TYPHIMURIUM, Strain/Indicator: TA1537, Metabolic Activation: RAT LIVER S-9, PHENOBARBITAL AND BETA-NAPHTHOFLAVONE, Method: PREINCUBATION
  mutagenic call: inactive; negative
Test System: AMES SALMONELLA TYPHIMURIUM, Strain/Indicator: TA1537, Metabolic Activation: RAT, LIVER, S-9, KC 500, Method: PREINCUBATION
  mutagenic call: inactive; negative
Test System: AMES SALMONELLA TYPHIMURIUM, Strain/Indicator: TA1538, Metabolic Activation: NONE, Method: PREINCUBATION
  mutagenic call: inactive; negative
Test System: AMES SALMONELLA TYPHIMURIUM, Strain/Indicator: TA1538, Metabolic Activation: RAT LIVER S-9, PHENOBARBITAL AND BETA-NAPHTHOFLAVONE, Method: PREINCUBATION
  mutagenic call: inactive; negative
Test System: AMES SALMONELLA TYPHIMURIUM, Strain/Indicator: TA1538, Metabolic Activation: RAT, LIVER, S-9, KC 500, Method: PREINCUBATION
  mutagenic call: inactive; negative
Test System: E. COLI, Strain/Indicator: WP2 UVRA, Metabolic Activation: NONE, Method: PREINCUBATION
  mutagenic call: inactive; negative
Test System: E. COLI, Strain/Indicator: WP2UVRA, Metabolic Activation: NONE, Method: PREINCUBATION
  mutagenic call: inactive; negative
Test System: E. COLI, Strain/Indicator: WP2UVRA, Metabolic Activation: RAT LIVER S-9, PHENOBARBITAL AND BETA-NAPHTHOFLAVONE, Method: PREINCUBATION
  mutagenic call: inactive; negative
Test System: E. COLI, Strain/Indicator: WP2 UVRA, Metabolic Activation: RAT, LIVER, S-9, KC 500, Method: PREINCUBATION
  mutagenic call: inactive; negative

## O=C1CC[C@@H](C(=O)N2CSC[C@H]2C(=O)O)N1 ([pGlu]-[Thz]-OH)
[5]
  mutagenic call: inactive; negative
Test System: AMES SALMONELLA TYPHIMURIUM, Strain/Indicator: TA98, Metabolic Activation: RAT, LIVER, S-9, AROCLOR 1254, Method: STANDARD PLATE
  mutagenic call: inactive; negative
[6]
  mutagenic call: inactive; negative
Test System: AMES SALMONELLA TYPHIMURIUM, Strain/Indicator: TA100, Metabolic Activation: RAT, LIVER, S-9, AROCLOR 1254, Method: STANDARD PLATE
  mutagenic call: inactive; negative
Test System: AMES SALMONELLA TYPHIMURIUM, Strain/Indicator: TA1535, Metabolic Activation: NONE, Method: STANDARD PLATE
  mutagenic call: inactive; negative
Test System: AMES SALMONELLA TYPHIMURIUM, Strain/Indicator: TA1535, Metabolic Activation: RAT, LIVER, S-9, AROCLOR 1254, Method: STANDARD PLATE
  mutagenic call: inactive; negative
Test System: AMES SALMONELLA TYPHIMURIUM, Strain/Indicator: TA1537, Metabolic Activation: NONE, Method: STANDARD PLATE
  mutagenic call: inactive; negative
Test System: AMES SALMONELLA TYPHIMURIUM, Strain/Indicator: TA1537, Metabolic Activation: RAT, LIVER, S-9, AROCLOR 1254, Method: STANDARD PLATE
  mutagenic call: inactive; negative
Test System: AMES SALMONELLA TYPHIMURIUM, Strain/Indicator: TA1538, Metabolic Activation: NONE, Method: STANDARD PLATE
  mutagenic call: inactive; negative
Test System: AMES SALMONELLA TYPHIMURIUM, Strain/Indicator: TA1538, Metabolic Activation: RAT, LIVER, S-9, AROCLOR 1254, Method: STANDARD PLATE
  mutagenic call: inactive; negative
Test System: MOUSE LYMPHOMA, Strain/Indicator: L5178Y (TK+/TK-), Metabolic Activation: NONE, Method: SUSPENSION/PLATE
  mutagenic call: inactive; negative
Test System: MOUSE LYMPHOMA, Strain/Indicator: L5178Y (TK+/TK-), Metabolic Activation: RAT, LIVER, S-9, AROCLOR 1254, Method: SUSPENSION/PLATE
  mutagenic call: inactive; negative
Test System: UDS HELA CELLS, Strain/Indicator: THY INCORP, Metabolic Activation: NONE, Method: AUTORADIOGRAPHY
  mutagenic call: inactive; negative
Test System: UDS HELA CELLS, Strain/Indicator: THY INCORP, Metabolic Activation: RAT, LIVER, S-9, AROCLOR 1254, Method: AUTORADIOGRAPHY
  mutagenic call: inactive; negative

## C=C(C)C(=O)OCC(Br)CBr (configuration not stated)
Test System: AMES SALMONELLA TYPHIMURIUM, Strain/Indicator: TA98, Metabolic Activation: HAMSTER, LIVER, S-9, AROCLOR 1254 (10%), Method: PREINCUBATION
  mutagenic call: active; positive
[1]
  mutagenic call: inactive; negative
Test System: AMES SALMONELLA TYPHIMURIUM, Strain/Indicator: TA98, Metabolic Activation: RAT, LIVER, S-9, AROCLOR 1254 (10%), Method: PREINCUBATION
  mutagenic call: inactive; negative
Test System: AMES SALMONELLA TYPHIMURIUM, Strain/Indicator: TA100, Metabolic Activation: HAMSTER, LIVER, S-9, AROCLOR 1254 (10%), Method: PREINCUBATION
  mutagenic call: active; positive
[2]
  mutagenic call: inactive; negative
Test System: AMES SALMONELLA TYPHIMURIUM, Strain/Indicator: TA100, Metabolic Activation: RAT, LIVER, S-9, AROCLOR 1254 (10%), Method: PREINCUBATION
  mutagenic call: active; positive
Test System: AMES SALMONELLA TYPHIMURIUM, Strain/Indicator: TA1535, Metabolic Activation: HAMSTER, LIVER, S-9, AROCLOR 1254 (10%), Method: PREINCUBATION
  mutagenic call: active; positive
[3]
  mutagenic call: inactive; negative
Test System: AMES SALMONELLA TYPHIMURIUM, Strain/Indicator: TA1535, Metabolic Activation: RAT, LIVER, S-9, AROCLOR 1254 (10%), Method: PREINCUBATION
  mutagenic call: active; positive
Test System: AMES SALMONELLA TYPHIMURIUM, Strain/Indicator: TA1537, Metabolic Activation: HAMSTER, LIVER, S-9, AROCLOR 1254 (10%), Method: PREINCUBATION
  mutagenic call: inactive; negative
[4]
  mutagenic call: inactive; negative
Test System: AMES SALMONELLA TYPHIMURIUM, Strain/Indicator: TA1537, Metabolic Activation: RAT, LIVER, S-9, AROCLOR 1254 (10%), Method: PREINCUBATION
  mutagenic call: inactive; negative

## CN(C)CCCNc1c2ccccc2nc2c(F)ccc([N+](=O)[O-])c12
[5]
  mutagenic call: active; positive
[6]
  mutagenic call: active; positive
